Data on one compound can be found in patent US9596859B2, “Emulsifiable concentrate for a phytosanitary composition, phytosanitary composition and phytosanitary film” (Total Marketing Services, priority 2009, dated 2017).

The test has as its system Aonidiella aurantii. Description: Insecticidal efficacy of emulsions sprayed on citrus groves (oranges). Conditions: concentration 0.151/hl.

Protocol: Samples of products to be tested on citrus groves (oranges) are prepared. The reference R corresponds to an untreated citrus plot.
Emulsions according to the invention are used, obtained from X6, at 3% in a mixture of hydrocarbons as described in Example 1 for forming the concentrate. This concentrate is mixed at concentrations of 1 and 2% in water, then emulsified. The citrus groves are sprayed at a rate of 1200 L/ha. The efficacy of these emulsions is compared to that of an emulsion of the prior art T1, as described hereinafter and to a chemical reference product corresponding to the use of a synthetic pesticide, here Chlorpyrifos, reference T2.
For the emulsion T1, the concentrate is prepared using 1.4% ethoxylated C12-C14 alcohol and 1.6% ethoxylated C13 alcohol acid phosphate in the same mixture of hydrocarbons. As previously, this concentrate is mixed at concentrations of 1 and 2% in water then emulsified. The resulting emulsions are applied in an identical manner onto citrus.
The efficacy of these emulsions in preventing harmful insect activity is then evaluated, by comparison with the reference products and the prior art. To this end, a count is undertaken of the number of insects present at the time of application of the emulsions on the reference, and the number of insects having withstood the treatment after 20 days. The efficacy is measured according to the Abbott formula based on the number of live insects, the number of dead insects and the % of citrus infected (more than 3 insects per fruit).

As to `CCOP(=S)(OCC)Oc1nc(Cl)c(Cl)cc1Cl` [Concentrate T2, Chlorpyrifos], where the note is “Abbott formula, t + 20 days”, the “% Efficacy (Based on mortality)” value is reported as 83.3% and the “% Efficacy (Based on the number of live individuals)” value stood at 89.9%. For the setting “t + 20 days, citrus”, the “% mortality” value was determined as 88.0%, the “Number of dead individuals” value is 172.0 and the “Number of live individuals” value is on record as 23.5. Also, the “% fruits infected” value (t + 20 days, infected = more than 3 insects per fruit) was 7.8%. In addition, where the note is “t = 0 (at application), citrus”, the “Number of live individuals” value is 216.5.
